{"source": "patent US11401278B2", "about": "“Macrocyclic indole derivatives” (The Broad Institute, Inc., priority 2017, dated 2022)", "key": {"[1]": {"system": "SUDHL5", "experiment": "Antiproliferation assay (Assay 7), SUDHL5", "assay_type": "cell-based", "details": "CellTiter-Glo, median, read-out: Antiproli SUDHL5 [M] (median) IC50", "summary_of_the_method": "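Cells were exposed to compound for 72 hours at 37° C. Viability was measured by CellTiter-Glo luminescence. A day 0 plate read at the start served as the time-zero reference.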"}, "[2]": {"system": "SUDHL10", "experiment": "Induction of caspase-3/7 activity (Assay 4), SUDHL10", "assay_type": "cell-based", "details": "caspase-3/7 induction, median", "summary_of_the_method": "(§1)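 Caspase-3/7 activity measured by Caspase-Glo 3/7 luminescence in DLBCL cells after 3 h compound treatment at 37 °C. Medium-only background subtracted. EC50 fitted with C0 fixed at 1 and top set to the reference compound's plateau/max induction.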"}, "[3]": {"system": "SUDHL5", "experiment": "Induction of cytotoxicity (Assay 6), SUDHL5", "details": "read-out: Cytotox SUDHL5 [M] (median) IC50, CellTiter-Glo, 5 hours, SUDHL5"}, "[4]": {"system": "SUDHL5", "experiment": "Induction of caspase-3/7 activity (Assay 4), SUDHL5", "assay_type": "cell-based", "details": "caspase-3/7 induction, median", "summary_of_the_method": "as §1"}, "[5]": {"biological_target": "BCL-XL (Homo sapiens (Human), UniProt Q07817)", "sequence (Q07817 other isoform, or with tags, fused parts or gaps)": "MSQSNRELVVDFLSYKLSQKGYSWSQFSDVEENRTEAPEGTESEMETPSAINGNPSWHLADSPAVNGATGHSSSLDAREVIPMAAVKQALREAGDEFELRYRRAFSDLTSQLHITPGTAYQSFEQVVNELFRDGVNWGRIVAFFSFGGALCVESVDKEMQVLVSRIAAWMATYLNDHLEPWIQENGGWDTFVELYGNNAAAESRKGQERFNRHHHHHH", "experiment": "Protein-protein interaction assay BCL-XL/Bad BH3 peptide (BCL-XL assay, TR-FRET)", "assay_type": "binding", "details": "His-BCL-XL / Bad BH3 peptide, median", "summary_of_the_method": "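His-tagged human BCL-XL (aa 1-212, 1 nM final) was preincubated 10 min at 22 °C with compound (11 concentrations, 0.1 nM–20 μM), then biotinylated Bad BH3 peptide (1 nM) and TR-FRET reagents were added. Incubation: 1 h at 22 °C, then overnight at 4 °C, pH 7 Tris buffer. IC50 from 4-parameter fit of 665/620 ratio.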"}}, "note": "Where a name gives a salt, the structure may show the parent alone."}
{"smiles": "Cc1c2c(nn1C)CNS(=O)(=O)CCCn1c(C(=O)O)c(CCCOc3cccc4cc(F)ccc34)c3ccc(Cl)c-2c31", "note": "(single isomer, unassigned; enantiomer 2) [Example 52, 4-chloro-7-{3-[(6-fluoronaphthalen-1-yl)oxy]propyl}-2,3-dimethyl-13,13-dioxo-10,11,12,13,14,15-hexahydro-2H-13lambda^6-pyrazolo[3′,4′:4,5][1,2,8]thiadiazacycloundecino[6,7,8-hi]indole-8-carboxylic acid (Enantiomer 2)]", "values": [{"measurement": "IC50", "setting": "[1]; 72 hours", "result": "2e-05", "unit": "M"}, {"measurement": "EC50", "setting": "[2]; 3 hours", "result": "> 33", "unit": "µM"}, {"measurement": "IC50", "setting": "[3]", "result": "1.7e-05", "unit": "M"}, {"measurement": "EC50", "setting": "[4]; 3 hours", "result": 27, "unit": "µM"}, {"measurement": "IC50", "setting": "[5]", "result": 16, "unit": "µM"}]}
{"smiles": "CCc1c2c(nn1C)CN(C)S(=O)(=O)CCCn1c(C(=O)O)c(CCCOc3cccc4cc(F)ccc34)c3ccc(F)c-2c31", "note": "(single isomer, unassigned; enantiomer 2) [Example 9, (−)-3-Ethyl-4-fluoro-7-{3-[(6-fluoronaphthalen-1-yl)oxy]propyl}-2,14-dimethyl-13,13-dioxo-10,11,12,13,14,15-hexahydro-2H-13λ^6-pyrazolo[3′,4′:4,5][1,2,8]thiadiazacycloundecino-[6,7,8-hi]indole-8-carboxylic acid (Enantiomer 2)]", "values": [{"measurement": "IC50", "setting": "[1]; 72 hours", "result": "1.4e-05", "unit": "M"}, {"measurement": "EC50", "setting": "[2]; 3 hours", "result": "> 33", "unit": "µM"}, {"measurement": "IC50", "setting": "[3]", "result": "1.7e-05", "unit": "M"}, {"measurement": "EC50", "setting": "[4]; 3 hours", "result": 21, "unit": "µM"}, {"measurement": "IC50", "setting": "[5]", "result": "> 20", "unit": "µM"}]}
{"smiles": "CCc1c2c(nn1C)CN(CCCN1CCCC1=O)S(=O)(=O)CCCn1c(C(=O)O)c(CCCOc3cccc4ccccc34)c3cccc-2c31", "note": "(racemic) [Example 13, (rac)-12-Ethyl-11-methyl-1-(3-(naphthalen-1-yloxy)propyl)-8-(3-(2-oxopyrrolidin-1-yl)propyl)-5,6,9,11-tetrahydro-4H,8H-pyrazolo[3′,4′:4,5][1]thia[2,8]diazacycloundecino[6,7,8-hi]indole-2-carboxylic acid 7,7-dioxide]", "values": [{"measurement": "IC50", "setting": "[1]; Homo sapiens, SU-DHL-5, 72 h", "result": "4.4e-06", "unit": "M"}, {"measurement": "EC50", "setting": "[2]; Homo sapiens, SU-DHL10, 3 h", "result": 16, "unit": "µM"}, {"measurement": "IC50", "setting": "[3]; Homo sapiens, SU-DHL-5, 5 h", "result": "8.2e-06", "unit": "M"}, {"measurement": "EC50", "setting": "[4]; Homo sapiens, SU-DHL-5, 3 h", "result": 10, "unit": "µM"}, {"measurement": "IC50", "setting": "[5]", "result": "> 20", "unit": "µM"}]}
{"smiles": "CCc1c2c(nn1C)CN(C)S(=O)(=O)CCCn1c(C(=O)O)c(CCCOc3cccc4c3CCC4)c3ccc(F)c-2c31", "note": "(racemic) [Example 32, (rac)-1-(3-((2,3-Dihydro-1H-inden-4-yl)oxy)propyl)-12-ethyl-13-fluoro-8,11-dimethyl-5,6,9,11-tetrahydro-4H,8H-pyrazolo[3′,4′:4,5][1]thia[2,8]diazacycloundecino[6,7,8-hi]indole-2-carboxylic acid 7,7-dioxide]", "values": [{"measurement": "IC50", "setting": "[1]; Homo sapiens, SU-DHL-5, 72 h", "result": "3.9e-07", "unit": "M"}, {"measurement": "EC50", "setting": "[2]; Homo sapiens, SU-DHL10, 3 h", "result": 1.1, "unit": "µM"}, {"measurement": "IC50", "setting": "[3]; Homo sapiens, SU-DHL-5, 5 h", "result": "7.4e-07", "unit": "M"}, {"measurement": "EC50", "setting": "[4]; Homo sapiens, SU-DHL-5, 3 h", "result": 0.58, "unit": "µM"}, {"measurement": "IC50", "setting": "[5]", "result": "> 20", "unit": "µM"}]}
{"smiles": "Cc1c2c(nn1C)CN(C)S(=O)(=O)CCCn1c(C(=O)O)c(CCCOc3cccc4ccccc34)c3ccc(Cl)c-2c31", "note": "(single isomer, unassigned; enantiomer 2) [Example 6, 4-Chloro-2,3,14-trimethyl-7-{3-[(naphthalen-1-yl)oxy]propyl}-13,13-dioxo-10,11,12,13,14,15-hexahydro-2H-13λ^6-pyrazolo[3′,4′:4,5][1,2,8]thiadiazacycloundecino[6,7,8-hi]indole-8-carboxylic acid-N-ethylethanamine salt (Enantiomer 2)]", "values": [{"measurement": "IC50", "setting": "[1]; 72 hours", "result": "1.1e-05", "unit": "M"}, {"measurement": "EC50", "setting": "[2]; 3 hours", "result": 14, "unit": "µM"}, {"measurement": "IC50", "setting": "[3]", "result": "1.2e-05", "unit": "M"}, {"measurement": "EC50", "setting": "[4]; 3 hours", "result": 16, "unit": "µM"}, {"measurement": "IC50", "setting": "[5]", "result": 18, "unit": "µM"}]}
{"smiles": "CCc1c2c(nn1C)C(CCC1CCOCC1)N(C)S(=O)(=O)CCCn1c(C(=O)O)c(CCCOc3cccc4cc(F)ccc34)c3ccc(Cl)c-2c31", "note": "(racemic) [Example 59, (rac)-4-chloro-3-ethyl-7-{3-[(6-fluoro-1-naphthyl)oxy]propyl}-2,14-dimethyl-15-[2-(tetrahydro-2H-pyran-4-yl)ethyl]-11,12,14,15-tetrahydro-2H,10H-pyrazolo[3′,4′:4,5][1,2,8]thiadiazacycloundecino[6,7,8-hi]indole-8-carboxylic acid 13,13-dioxide (Racemate 2)]", "values": [{"measurement": "IC50", "setting": "[1]; 72 hours", "result": "5.6e-08", "unit": "M"}, {"measurement": "EC50", "setting": "[2]; 3 hours", "result": 0.078, "unit": "µM"}, {"measurement": "IC50", "setting": "[3]", "result": "5.9e-08", "unit": "M"}, {"measurement": "EC50", "setting": "[4]; 3 hours", "result": 0.037, "unit": "µM"}, {"measurement": "IC50", "setting": "[5]", "result": 16, "unit": "µM"}]}
{"smiles": "CCc1c2c(nn1C)C(CCC1CCOCC1)N(C)S(=O)(=O)CCCn1c(C(=O)O)c(CCCOc3cccc4cc(F)ccc34)c3ccc(Cl)c-2c31", "note": "(single isomer, unassigned; enantiomer 1) [Example 61, (+)-4-chloro-3-ethyl-7-{3-[(6-fluoronaphthalen-1-yl)oxy]propyl}-2,14-dimethyl-15-[2-(oxan-4-yl)ethyl]-13,13-dioxo-10,11,12,13,14,15-hexahydro-2H-13lambda^6-pyrazolo[3′,4′:4,5][1,2,8]thiadiazacycloundecino[6,7,8-hi]indole-8-carboxylic acid (Enantiomer 1)]", "values": [{"measurement": "IC50", "setting": "[1]; 72 hours", "result": "3.9e-08", "unit": "M"}, {"measurement": "EC50", "setting": "[2]; 3 hours", "result": 0.024, "unit": "µM"}, {"measurement": "IC50", "setting": "[3]", "result": "2.8e-08", "unit": "M"}, {"measurement": "EC50", "setting": "[4]; 3 hours", "result": 0.022, "unit": "µM"}, {"measurement": "IC50", "setting": "[5]", "result": "> 20", "unit": "µM"}]}
{"smiles": "CCc1c2c(nn1C)C(CCC1CCOCC1)N(C)S(=O)(=O)CCCn1c(C(=O)O)c(CCCOc3cccc4cc(F)ccc34)c3ccc(Cl)c-2c31", "note": "(single isomer, unassigned; enantiomer 4) [Example 64, (−)-4-chloro-3-ethyl-7-{3-[(6-fluoronaphthalen-1-yl)oxy]propyl}-2,14-dimethyl-15-[2-(oxan-4-yl)ethyl]-13,13-dioxo-10,11,12,13,14,15-hexahydro-2H-13lambda^6-pyrazolo[3′,4′:4,5][1,2,8]thiadiazacycloundecino[6,7,8-hi]indole-8-carboxylic acid (Enantiomer 4)]", "values": [{"measurement": "IC50", "setting": "[1]; 72 hours", "result": "1.4e-06", "unit": "M"}, {"measurement": "EC50", "setting": "[2]; 3 hours", "result": 1.6, "unit": "µM"}, {"measurement": "IC50", "setting": "[3]", "result": "1.2e-06", "unit": "M"}, {"measurement": "EC50", "setting": "[4]; 3 hours", "result": 1.2, "unit": "µM"}, {"measurement": "IC50", "setting": "[5]", "result": "> 20", "unit": "µM"}]}
{"smiles": "Cc1c2c(nn1C)CN(C1CC1)S(=O)(=O)CCCn1c(C(=O)O)c(CCCOc3cccc4cc(F)ccc34)c3ccc(Cl)c-2c31", "note": "(racemic) [Example 41, (rac)-4-chloro-14-cyclopropyl-7-{3-[(6-fluoro-1-naphthyl)oxy]propyl}-2,3-dimethyl-11,12,14,15-tetrahydro-2H,10H-pyrazolo[3′,4′:4,5][1,2,8]thiadiazacycloundecino[6,7,8-hi]indole-8-carboxylic acid 13,13-dioxide]", "values": [{"measurement": "IC50", "setting": "[1]; 72 hours", "result": "1.2e-06", "unit": "M"}, {"measurement": "EC50", "setting": "[2]; 3 hours", "result": 1.6, "unit": "µM"}, {"measurement": "IC50", "setting": "[3]", "result": "9.7e-07", "unit": "M"}, {"measurement": "EC50", "setting": "[4]; 3 hours", "result": 0.82, "unit": "µM"}, {"measurement": "IC50", "setting": "[5]", "result": 19, "unit": "µM"}]}
{"smiles": "CCc1c2c(nn1C)CN(CCCN1CCCC1)S(=O)(=O)CCCn1c(C(=O)O)c(CCCOc3cccc4ccccc34)c3cccc-2c31", "note": "(racemic) [Example 16, (rac)-12-Ethyl-11-methyl-1-(3-(naphthalen-1-yloxy)propyl)-8-(3-(pyrrolidin-1-yl)propyl)-5,6,9,11-tetrahydro-4H,8H-pyrazolo[3′,4′:4,5][1]thia[2,8]diazacycloundecino[6,7,8-hi]indole-2-carboxylic acid 7,7-dioxide]", "values": [{"measurement": "IC50", "setting": "[1]; Homo sapiens, SU-DHL-5, 72 h", "result": "2.2e-05", "unit": "M"}, {"measurement": "EC50", "setting": "[2]; Homo sapiens, SU-DHL10, 3 h", "result": "> 33", "unit": "µM"}, {"measurement": "IC50", "setting": "[3]; Homo sapiens, SU-DHL-5, 5 h", "result": "3.2e-05", "unit": "M"}, {"measurement": "EC50", "setting": "[4]; Homo sapiens, SU-DHL-5, 3 h", "result": 32, "unit": "µM"}, {"measurement": "IC50", "setting": "[5]", "result": "> 20", "unit": "µM"}]}
{"smiles": "CCc1c2c(nn1C)CN(C1CC1)S(=O)(=O)CCCn1c(C(=O)O)c(CCCOc3cccc4cc(F)ccc34)c3ccc(Cl)c-2c31", "note": "(racemic) [Example 53, (rac)-4-chloro-14-cyclopropyl-3-ethyl-7-{3-[(6-fluoro-1-naphthyl)oxy]propyl}-2-methyl-11,12,14,15-tetrahydro-2H,10H-pyrazolo[3′,4′:4,5][1,2,8]thiadiazacycloundecino[6,7,8-hi]indole-8-carboxylic acid 13,13-dioxide]", "values": [{"measurement": "IC50", "setting": "[1]; 72 hours", "result": "5.9e-07", "unit": "M"}, {"measurement": "EC50", "setting": "[2]; 3 hours", "result": 0.77, "unit": "µM"}, {"measurement": "IC50", "setting": "[3]", "result": "8.1e-07", "unit": "M"}, {"measurement": "EC50", "setting": "[4]; 3 hours", "result": 0.55, "unit": "µM"}, {"measurement": "IC50", "setting": "[5]", "result": 16, "unit": "µM"}]}
